CC(=O)Nc1ccc(OC(=O)c2ccccc2OC(C)=O)cc1
solubility (mole fraction)
Details	278.15 K	283.15 K	288.15 K	293.15 K	298.15 K	303.15 K	308.15 K	313.15 K	318.15 K
in acetone	0.00215	0.00268	0.00353	0.00414	0.0052	0.00593	0.00792	0.0098	0.0123
in acetonitrile	0.00129	0.00153	0.00192	0.00235	0.00275	0.00378	0.00452	0.00575	0.00674
in ethanol	0.000242	0.000364	0.000497	0.000601	0.000717	0.000987	0.00125	0.00155	0.002
in ethyl acetate	0.000904	0.00109	0.00115	0.00147	0.00179	0.00216	0.00268	0.00325	0.00391
in ethyl formate	0.000965	0.00111	0.00138	0.00165	0.00193	0.00227	0.00299	0.00394	0.00449
in isobutanol	0.000204	0.000272	0.000344	0.000485	0.000587	0.000739	0.00107	0.00131	0.00161
in isopropanol	0.000153	0.000216	0.000261	0.000314	0.000481	0.000593	0.000833	0.00106	0.00137
in isopropyl acetate	0.000329	0.000423	0.00056	0.000886	0.00106	0.00145	0.00189	0.00241	0.00314
in methanol	0.000427	0.000575	0.000718	0.000908	0.001	0.00129	0.00171	0.0021	0.00271
in methyl acetate	0.000971	0.00121	0.00155	0.00183	0.0023	0.00267	0.0034	0.00406	0.00481
in n-butanol	0.000302	0.000407	0.000517	0.000643	0.000764	0.000939	0.00127	0.00143	0.00174
in n-propanol	0.000181	0.000268	0.000361	0.000561	0.000723	0.000994	0.0013	0.00166	0.00222

Reference: BigSolDB 2.1
